Data from ChEMBL document CHEMBL5331061, “Design, synthesis, and biological evaluation of Wee1 kinase degraders” (Eur J Med Chem, 2022).
Active and inactive are the calls of the source. No cut-off for these calls is given here.

Tests used:
[1] = Reduction in PKMYT1 level in human MV4-11 cells by measuring residual activity at 25 nM measured after 24 hrs by Western blot assay (reference value: 100%); assay type: functional
MV4-11 [2] = assay: Induction of apoptosis in human MV4-11 cells assessed as increase in late apoptotic cells incubated for 48 hrs by annexin V and PI staining based flow cytometry analysis; assay type: functional, cell-based; details: dose 12.5-200 nM
[3] = biological target: Cyclin-dependent kinase 1 (Homo sapiens) (UniProt P06493); assay: Inhibition of CDK1 phosphorylation in human MV4-11 cells by measuring residual activity at 50 nM measured after 24 hrs by Western blot assay; assay type: cell-based
Chain of Cyclin-dependent kinase 1 (Homo sapiens) (P06493 whole entry, looked up): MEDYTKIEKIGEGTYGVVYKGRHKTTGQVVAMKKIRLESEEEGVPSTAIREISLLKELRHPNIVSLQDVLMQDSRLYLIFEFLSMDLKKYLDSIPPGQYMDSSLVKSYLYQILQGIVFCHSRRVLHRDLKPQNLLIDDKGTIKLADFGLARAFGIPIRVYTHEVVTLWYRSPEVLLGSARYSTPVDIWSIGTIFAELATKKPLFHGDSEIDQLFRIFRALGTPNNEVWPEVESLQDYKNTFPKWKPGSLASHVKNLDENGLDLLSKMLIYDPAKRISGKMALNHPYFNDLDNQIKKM

[4] = Reduction in PKMYT1 level in human MV4-11 cells by measuring residual activity at 12.5 nM measured after 24 hrs by Western blot assay (reference value: 100%); assay type: functional
MV4-11 [5] = assay: Effect on PLK1 expression in human MV4-11 cells at IC50 measured after 6 hrs by Western blot analysis; assay type: functional, cell-based
[6] = biological target: Cyclin-dependent kinase 1 (Homo sapiens) (UniProt P06493); assay: Inhibition of CDK1 phosphorylation in human MV4-11 cells by measuring residual activity at 100 nM measured after 24 hrs by Western blot assay; assay type: cell-based
MV4-11 [7] = assay: Effect on Wee1 mRNA expression in human MV4-11 cells at 50 nM measured upto 72 hrs by qRT-PCR assay; assay type: functional, cell-based
[8] = Half life in ICR mouse at 10 mg/kg, iv measured upto 360 mins; assay type: ADME, organism-based; details: in vivo
[9] = Reduction in PKMYT1 level in human MV4-11 cells by measuring residual activity at 50 nM measured after 24 hrs by Western blot assay (reference value: 100%); assay type: functional
[10] = AUClast in ICR mouse at 10 mg/kg, iv measured upto 360 mins; assay type: ADME, organism-based; design: dose 10 mg/kg, time < 360 min, route iv; details: in vivo
MV4-11 [11] = assay: Induction of apoptosis in human […] -/- MV4-11 cells at 50 to 400 nM measured after 48 hrs by AnnexinV/PI staining based flow cytometry analysis; assay type: functional, cell-based; details: dose 50-400 nM
[12] = biological target: Serine/threonine-protein kinase PLK1 (Homo sapiens, UniProt P53350); assay: Inhibition of PLK1 (unknown origin)
Chain of Serine/threonine-protein kinase PLK1 (P53350 whole entry): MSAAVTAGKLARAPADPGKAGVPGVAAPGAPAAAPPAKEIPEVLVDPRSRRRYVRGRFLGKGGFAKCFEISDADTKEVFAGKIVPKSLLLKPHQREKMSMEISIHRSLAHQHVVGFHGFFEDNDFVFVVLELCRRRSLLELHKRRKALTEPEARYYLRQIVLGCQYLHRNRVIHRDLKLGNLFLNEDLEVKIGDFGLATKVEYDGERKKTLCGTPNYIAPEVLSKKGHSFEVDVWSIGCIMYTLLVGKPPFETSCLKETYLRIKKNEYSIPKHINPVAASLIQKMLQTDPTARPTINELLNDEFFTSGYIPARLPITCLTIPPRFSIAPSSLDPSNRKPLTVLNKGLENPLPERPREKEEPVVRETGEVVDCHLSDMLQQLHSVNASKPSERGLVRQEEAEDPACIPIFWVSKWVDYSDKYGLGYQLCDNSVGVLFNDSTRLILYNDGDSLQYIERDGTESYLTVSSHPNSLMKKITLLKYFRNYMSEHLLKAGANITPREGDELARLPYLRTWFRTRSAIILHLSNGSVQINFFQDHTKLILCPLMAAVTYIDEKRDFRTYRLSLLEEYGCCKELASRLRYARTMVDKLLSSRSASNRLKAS

MV4-11 [13] = assay: Induction of apoptosis in human MV4-11 cells assessed as increase in early apoptotic cells incubated for 48 hrs by annexin V and PI staining based flow cytometry analysis; assay type: functional, cell-based; details: dose 12.5-200 nM
[14] = biological target: Cyclin-dependent kinase 1 (Homo sapiens) (UniProt P06493); assay: Inhibition of CDK1 phosphorylation in human MV4-11 cells assessed as reduction in phosphorylated CDK1 level by measuring residual activity at 50 uM pretreated for 2 hrs with proteasome inhibitor lenalidomide followed by incubation with compound for 3 hrs by Western blot analysis (reference value: 29%); assay type: cell-based
MV4-11 [15] = assay: Induction of cell cycle arrest in human MV4-11 cells assessed as accumulation of cells at G0/G1 phase incubated for 24 hrs by […] PI staining based flow cytometry analysis; assay type: functional; details: dose 12.5-200 nM
MV4-11 [16] = assay: Induction of apoptosis in human MV4-11 cells assessed as cleaved caspase-3 expression at 100 nM incubated for 24 hrs by Western blot analysis; assay type: functional, cell-based
[17] = Observed AUCinfinity ICR mouse at 10 mg/kg, iv measured upto 360 mins; assay type: ADME, organism-based; design: dose 10 mg/kg, time < 360 min, route iv; details: in vivo
MV4-11 [18] = assay: Induction of apoptosis in human MV4-11 cells assessed as cleaved PARP expression at 100 nM incubated for 24 hrs by Western blot analysis; assay type: functional, cell-based
[19] = biological target: Cyclin-dependent kinase 1 (Homo sapiens) (UniProt P06493); assay: Inhibition of CDK1 phosphorylation in human MV4-11 cells by measuring residual activity at 12.5 nM measured after 24 hrs by Western blot assay; assay type: cell-based
MV4-11 [20] = assay: Effect on PKMYT1 mRNA expression in human MV4-11 cells at 50 nM measured upto 72 hrs by qRT-PCR assay; assay type: functional, cell-based
[21] = Downregulation of PLK1 in human MV4-11 cells assessed as 2 log fold change at 50 nM measured after 2 hrs by proteomic analysis; assay type: functional
[22] = Reduction in PKMYT1 level in human MV4-11 cells by measuring residual activity at 100 nM measured after 24 hrs by Western blot assay (reference value: 100%); assay type: functional
[23] = biological target: Cyclin-dependent kinase 1 (Homo sapiens) (UniProt P06493); assay: Inhibition of CDK1 phosphorylation in human MV4-11 cells assessed as reduction in phosphorylated CDK1 level by measuring residual activity at 50 uM pretreated for 2 hrs with proteasome inhibitor Iberdomide followed by incubation with compound for 3 hrs by Western blot analysis (reference value: 29%); assay type: cell-based
[24] = biological target: Cyclin-dependent kinase 1 (Homo sapiens) (UniProt P06493); assay: Inhibition of CDK1 phosphorylation in human MV4-11 cells assessed as reduction in phosphorylated CDK1 level by measuring residual activity at 50 uM pretreated for 2 hrs with proteasome inhibitor carfilzomib followed by incubation with compound for 3 hrs by Western blot analysis (reference value: 29%); assay type: cell-based
[25] = biological target: Cyclin-dependent kinase 1 (Homo sapiens) (UniProt P06493); assay: Inhibition of CDK1 in human MV4-11 cells assessed as dephosphorylation at 50 nM pretreated for 2 hrs followed by replacement with fresh medium and measured after 24 hrs by Western blot method; assay type: cell-based; details: time 26.0 hrs
[26] = Reduction in PKMYT1 level in human MV4-11 cells by measuring residual activity at 200 nM measured after 24 hrs by Western blot assay (reference value: 100%); assay type: functional
[27] = Downregulation of MAP3K4 in human MV4-11 cells assessed as 2 log fold change at 50 nM measured after 2 hrs by proteomic analysis; assay type: functional
[28] = Observed MRTinfinity ICR mouse at 10 mg/kg, iv measured upto 360 mins; assay type: ADME, organism-based; details: in vivo
[29] = Downregulation of JAK2 in human MV4-11 cells assessed as 2 log fold change at 50 nM measured after 2 hrs by proteomic analysis; assay type: functional
MV4-11 [30] = assay: Induction of […] in human MV4-11 cells assessed as change in gammaH2AX level at 12.5 to 200 nM measured after 24 hrs by Western blot analysis; assay type: functional, cell-based; details: dose 12.5-200 nM
[31] = biological target: T1, Membrane-associated tyrosine- and threonine-specific cdc2-inhibitory kinase (Homo sapiens) (UniProt Q99640); assay: Induction of PKMYT1 degradation in human MV4-11 cells at 50 nM measured after 3 hrs by Western blot assay; assay type: cell-based
T1 sequence (whole entry): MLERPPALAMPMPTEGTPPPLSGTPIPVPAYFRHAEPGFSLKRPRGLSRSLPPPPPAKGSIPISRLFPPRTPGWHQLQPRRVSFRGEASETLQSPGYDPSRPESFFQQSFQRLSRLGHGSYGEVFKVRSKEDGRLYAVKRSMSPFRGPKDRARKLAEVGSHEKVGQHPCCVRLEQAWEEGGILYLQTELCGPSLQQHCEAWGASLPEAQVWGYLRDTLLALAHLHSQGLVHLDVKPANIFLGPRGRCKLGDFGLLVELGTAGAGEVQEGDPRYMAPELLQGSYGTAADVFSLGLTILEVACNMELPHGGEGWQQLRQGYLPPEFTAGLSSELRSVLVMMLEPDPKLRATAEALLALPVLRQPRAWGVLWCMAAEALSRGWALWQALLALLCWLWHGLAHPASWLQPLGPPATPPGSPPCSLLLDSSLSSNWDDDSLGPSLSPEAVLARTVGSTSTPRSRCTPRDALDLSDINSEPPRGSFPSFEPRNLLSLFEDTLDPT

[32] = biological target: Cyclin-dependent kinase 1 (Homo sapiens) (UniProt P06493); assay: Inhibition of CDK1 phosphorylation in human MV4-11 cells by measuring residual activity at 200 nM measured after 24 hrs by Western blot assay; assay type: cell-based
[33] = biological target: Cyclin-dependent kinase 1 (Homo sapiens) (UniProt P06493); assay: Inhibition of CDK1 phosphorylation in human MV4-11 cells by measuring residual activity at 25 nM measured after 24 hrs by Western blot assay; assay type: cell-based
[34] = biological target: Cyclin-dependent kinase 1 (Homo sapiens) (UniProt P06493); assay: Inhibition of CDK1 phosphorylation in human MV4-11 cells assessed as reduction in phosphorylated CDK1 level by measuring residual activity at 50 uM pretreated for 2 hrs with proteasome inhibitor Bortezomib followed by incubation with compound for 3 hrs by Western blot analysis (reference value: 29%); assay type: cell-based
MV4-11 [35] = assay: Effect on PLK1 mRNA expression in human MV4-11 cells at 50 nM measured upto 72 hrs by qRT-PCR assay; assay type: functional, cell-based

With `C=CCn1c(=O)c2cnc(Nc3ccc(N4CCN(CCCCNc5cccc6c5C(=O)N(C5CCC(=O)NC5=O)C6=O)CC4)cc3)nc2n1-c1cccc(C(C)(C)O)n1` (stereo not given) the Activity [1] was 99%, the Activity (MV4-11 [2]) was “Dose-Dependent Effect” and the Activity [3] was 50%. The Activity [4] was 113%, the Activity (MV4-11 [5]) was “inactive” and the Activity [6] was 22%. For the same molecule, the Activity (MV4-11 [7]) was “inactive”, the half-life [8] was 1.31 h and the Activity [9] was 38%. For the same molecule, the AUC(0-t) at 6 h [10] was 4580 ng·h/mL, the Activity (MV4-11 [11]) was “inactive” and the IC50 [12] was 2970 nM. The Activity (MV4-11 [13]) was “Dose-Dependent Effect”, the Activity [14] was 102% and the Activity (MV4-11 [15]) was “Dose-Dependent Effect”. The Activity (MV4-11 [16]) was “Active”, the AUC(0-inf) [17] was 4660 ng·h/mL and the Activity (MV4-11 [18]) was “Active”. The Activity [19] was 88%, the Activity (MV4-11 [20]) was “inactive” and the FC [21] was 0.38. The Activity [22] was 37%, the Activity [23] was 75% and the Activity [24] was 96%. The inhibition [25] was “Active”, the Activity [26] was 25% and the FC [27] was -0.06. For the same molecule, the MRT inf [28] was 0.943 h, the FC [29] was -0.1 and the Activity (MV4-11 [30]) was “inactive”. The Activity [31] was “Active”, the Activity [32] was 20% and the Activity [33] was 80%. For the same molecule, the Activity [34] was 120% and the Activity (MV4-11 [35]) was “inactive”.
